# According to US20210022305A1, “A HUMULUS PLANT VARIANT AND EXTRACTS THEREOF” (BOMI LLC, priority 2018, published 2021):
# Tested on: VIC cells
# Assay: VIC calcification reduction (Alizarin Red S nodule number and area)
# Format: cell-based, porcine
# Procedure: VIC Isolation and Culture. VICs were isolated from porcine aortic valve leaflets (Hormel, Austin, Minn.) by collagenase digestion and subsequently cultured in growth medium (15% FBS, 2 mM L-glutamine, 100 U/ml penicillin, and 100 µg/ml streptomycin in medium 199) at 37° C., 5% CO2 for two to four passages. VICs used in all experiments were seeded at a density of 50,000 cells/cm^2 onto 24-well or 96-well plates. During the experiments, the VICs were cultured in low-serum medium (1% FBS, 100 U/ml penicillin, 100 µg/ml streptomycin, 2 mM L-glutamine, in medium 199), and the medium was changed each day until the fifth day.
# Culture Substrate Coatings. Tissue culture polystyrene (TCPS) plates (24-well or 96-well) were coated with type I collagen (Coll) (Inamed Biomaterials, Fremont, Calif.; […]), fibronectin (FN, 5 g/cm^2), fibrin (FB, […]), or left untreated (TCPS). For the FB coating, plates were first incubated overnight at 4° C. in fibrinogen (1 mg/mL), followed by three washes with 0.05% Tween 20 in phosphate-buffered saline (PBS) and 1 hour incubation with thrombin (0.6 mg/ml) at 37° C. (Gu et al., “Role of the MAPK/ERK Pathway in Valvular Interstitial Cell Calcification,” American Journal of Physiology—Heart and Circulatory Physiology 296(6):H1748-H1757 (2009), which is hereby incorporated by reference in its entirety). All coatings were prepared in 50 mM bicarbonate coating buffer, pH 8.5, and rinsed three times with PBS before cell seeding. The amounts of adsorbed proteins were measured on separate plates using the bicinchoninic acid protein assay (Pierce, Rockford, Ill.) to verify adsorption of protein coatings.
# Quantification of Nodule Number and Size. After 5 days of culture in the presence or absence of U-0126 or PD-98059, VIC cultures were stained with Alizarin Red S (ARS) to facilitate quantification of calcified nodules, as ARS stains mineralized deposits red. Cultures were fixed with 10% neutral buffered formalin, stored at 4° C. overnight, and stained with a 2% solution of ARS in PBS. Positively stained nodules were manually counted under a microscope (Olympus IX51 with Hamamatsu 285 digital camera and Simple PCI digital imaging software; Compix, Imaging Systems, Cranberry Township, Pa.). Nodule size was measured using ImageJ software (National Institutes of Health), and photomicrographs were captured under 40 and 100 magnifications.
# Multiplate wells containing calcifying VICs from 27 different tissue samples were treated with CBD of 8 different bioactivities, and 5 different mg concentrations, or left untreated. Average calcification was computed using the number of nodules per well, and the average area per nodule. Average total nodule area for untreated wells was 3.27 mm^2 (SD=0.32, min=0.5, max=4.0) per well. All reported percent reductions in calcification were computed by dividing average nodule area of treated wells from 3.27 mm^2. CBD samples were clustered according to their bioactivity levels around the values, 0.20, 0.30, 0.50, 0.60, 0.70, 0.80, 0.90, and 0.95. Mg dosages of 5, 10, 25, 40, and 100 were examined.
# Culture Substrate Coatings. Tissue culture polystyrene (TCPS) plates (24-well or 96-well) were coated with type I collagen (Coll) (Inamed Biomaterials, Fremont, Calif.; […]), fibronectin (FN, 5 g/cm^2), fibrin (FB, 1.5 g/cm^2), or left untreated (TCPS). For the FB coating, plates were first incubated overnight at 4° C. in fibrinogen (1 mg/mL), followed by three washes with 0.05% Tween 20 in phosphate-buffered saline (PBS) and 1 hour incubation with thrombin (0.6 mg/mL) at 37° C. All coatings were prepared in 50 mM bicarbonate coating buffer, pH 8.5, and rinsed three times with PBS before cell seeding. The amounts of adsorbed proteins were measured on separate plates using the bicinchoninic acid protein assay (Pierce, Rockford, Ill.) to verify adsorption of protein coatings. […]
# [1] = Example 4, 5 mg, CBD = 0.95 bioactivity
# [2] = Example 4, 10 mg, CBD = 0.95 bioactivity
# [3] = Example 4, 25 mg, CBD = 0.95 bioactivity
# [4] = Example 4, 40 mg, CBD = 0.95 bioactivity
# [5] = Example 4, 100 mg, CBD = 0.95 bioactivity
smiles,measurement,setting,value
"C=C(C)C1CCC(C)=CC1c1c(O)cc(CCCCC)cc1O (stereo not drawn) [CBD, 2-(6-isopropenyl-3-methyl-2-cyclohexen-l-yl)-5-pentyl-1,3-benzenediol]","Calcification reduction, M","5 mg, bioactivity .20",5.17%
same,"Calcification reduction, Max","5 mg, bioactivity .20",6.9%
same,"Calcification reduction, Min","5 mg, bioactivity .20",3.8%
same,"Calcification reduction, M","5 mg, bioactivity .30",6.16%
same,"Calcification reduction, Max","5 mg, bioactivity .30",7.3%
same,"Calcification reduction, Min","5 mg, bioactivity .30",5.2%
same,"Calcification reduction, M","5 mg, bioactivity .50",7.63%
same,"Calcification reduction, Max","5 mg, bioactivity .50",9.1%
same,"Calcification reduction, Min","5 mg, bioactivity .50",5.3%
same,"Calcification reduction, M","5 mg, bioactivity .60",7.99%
same,"Calcification reduction, Max","5 mg, bioactivity .60",10.4%
same,"Calcification reduction, Min","5 mg, bioactivity .60",6.2%
same,"Calcification reduction, M","5 mg, bioactivity .70",10.06%
same,"Calcification reduction, Max","5 mg, bioactivity .70",13.6%
same,"Calcification reduction, Min","5 mg, bioactivity .70",7.3%
same,"Calcification reduction, M","5 mg, bioactivity .80",14.32%
same,"Calcification reduction, Max","5 mg, bioactivity .80",16.6%
same,"Calcification reduction, Min","5 mg, bioactivity .80",11.3%
same,"Calcification reduction, M","5 mg, bioactivity .90",18.06%
same,"Calcification reduction, Max","5 mg, bioactivity .90",21%
same,"Calcification reduction, Min","5 mg, bioactivity .90",14.6%
same,"Calcification reduction, M","5 mg, bioactivity .95",19.42%
same,"Calcification reduction, Max","5 mg, bioactivity .95",22.1%
same,"Calcification reduction, Min","5 mg, bioactivity .95",15.4%
same,"Calcification reduction, M","10 mg, bioactivity .20",4.95%
same,"Calcification reduction, Max","10 mg, bioactivity .20",6.2%
same,"Calcification reduction, Min","10 mg, bioactivity .20",3.7%
same,"Calcification reduction, M","10 mg, bioactivity .30",6.24%
same,"Calcification reduction, Max","10 mg, bioactivity .30",7.5%
same,"Calcification reduction, Min","10 mg, bioactivity .30",4.9%
same,"Calcification reduction, M","10 mg, bioactivity .50",9.77%
same,"Calcification reduction, Max","10 mg, bioactivity .50",11.7%
same,"Calcification reduction, Min","10 mg, bioactivity .50",7.7%
same,"Calcification reduction, M","10 mg, bioactivity .60",11.8%
same,"Calcification reduction, Max","10 mg, bioactivity .60",14.3%
same,"Calcification reduction, Min","10 mg, bioactivity .60",9.2%
same,"Calcification reduction, M","10 mg, bioactivity .70",14.33%
same,"Calcification reduction, Max","10 mg, bioactivity .70",17.2%
same,"Calcification reduction, Min","10 mg, bioactivity .70",10.2%
same,"Calcification reduction, M","10 mg, bioactivity .80",20.03%
same,"Calcification reduction, Max","10 mg, bioactivity .80",24.6%
same,"Calcification reduction, Min","10 mg, bioactivity .80",15.9%
same,"Calcification reduction, M","10 mg, bioactivity .90",25.04%
same,"Calcification reduction, Max","10 mg, bioactivity .90",30.3%
same,"Calcification reduction, Min","10 mg, bioactivity .90",20.5%
same,"Calcification reduction, M","10 mg, bioactivity .95",25.56%
same,"Calcification reduction, Max","10 mg, bioactivity .95",32.5%
same,"Calcification reduction, Min","10 mg, bioactivity .95",18.5%
same,"Calcification reduction, M","25 mg, bioactivity .20",6.07%
same,"Calcification reduction, Max","25 mg, bioactivity .20",7.1%
same,"Calcification reduction, Min","25 mg, bioactivity .20",4.8%
same,"Calcification reduction, M","25 mg, bioactivity .30",6.23%
same,"Calcification reduction, Max","25 mg, bioactivity .30",8.1%
same,"Calcification reduction, Min","25 mg, bioactivity .30",4.6%
same,"Calcification reduction, M","25 mg, bioactivity .50",10.89%
same,"Calcification reduction, Max","25 mg, bioactivity .50",12.5%
same,"Calcification reduction, Min","25 mg, bioactivity .50",9.5%
same,"Calcification reduction, M","25 mg, bioactivity .60",13.75%
same,"Calcification reduction, Max","25 mg, bioactivity .60",15.3%
same,"Calcification reduction, Min","25 mg, bioactivity .60",10.5%
same,"Calcification reduction, M","25 mg, bioactivity .70",16.55%
same,"Calcification reduction, Max","25 mg, bioactivity .70",18.6%
same,"Calcification reduction, Min","25 mg, bioactivity .70",14.3%
same,"Calcification reduction, M","25 mg, bioactivity .80",24.94%
same,"Calcification reduction, Max","25 mg, bioactivity .80",30.3%
same,"Calcification reduction, Min","25 mg, bioactivity .80",20.2%
same,"Calcification reduction, M","25 mg, bioactivity .90",30.51%
same,"Calcification reduction, Max","25 mg, bioactivity .90",35.6%
same,"Calcification reduction, Min","25 mg, bioactivity .90",23.5%
same,"Calcification reduction, M","25 mg, bioactivity .95",32.69%
same,"Calcification reduction, Max","25 mg, bioactivity .95",42.6%
same,"Calcification reduction, Min","25 mg, bioactivity .95",26.3%
same,"Calcification reduction, M","40 mg, bioactivity .20",5.19%
same,"Calcification reduction, Max","40 mg, bioactivity .20",6.9%
same,"Calcification reduction, Min","40 mg, bioactivity .20",3.6%
same,"Calcification reduction, M","40 mg, bioactivity .30",7.13%
same,"Calcification reduction, Max","40 mg, bioactivity .30",8.1%
same,"Calcification reduction, Min","40 mg, bioactivity .30",5.1%
same,"Calcification reduction, M","40 mg, bioactivity .50",14.2%
same,"Calcification reduction, Max","40 mg, bioactivity .50",17.1%
same,"Calcification reduction, Min","40 mg, bioactivity .50",12%
same,"Calcification reduction, M","40 mg, bioactivity .60",19.23%
same,"Calcification reduction, Max","40 mg, bioactivity .60",21.9%
same,"Calcification reduction, M","40 mg, bioactivity .70",24.7%
same,"Calcification reduction, Max","40 mg, bioactivity .70",33%
same,"Calcification reduction, Min","40 mg, bioactivity .70",18.9%
same,"Calcification reduction, M","40 mg, bioactivity .80",28.54%
same,"Calcification reduction, Max","40 mg, bioactivity .80",34.6%
same,"Calcification reduction, Min","40 mg, bioactivity .80",22.4%
same,"Calcification reduction, M","40 mg, bioactivity .90",40.09%
same,"Calcification reduction, Max","40 mg, bioactivity .90",44.6%
same,"Calcification reduction, Min","40 mg, bioactivity .90",33.7%
same,"Calcification reduction, M","40 mg, bioactivity .95",42.98%
same,"Calcification reduction, Max","40 mg, bioactivity .95",54.5%
same,"Calcification reduction, Min","40 mg, bioactivity .95",35.8%
same,"Calcification reduction, M","100 mg, bioactivity .20",6.1%
same,"Calcification reduction, Max","100 mg, bioactivity .20",7.5%
same,"Calcification reduction, Min","100 mg, bioactivity .20",5.2%
same,"Calcification reduction, M","100 mg, bioactivity .30",7.2%
same,"Calcification reduction, Max","100 mg, bioactivity .30",8.4%
same,"Calcification reduction, Min","100 mg, bioactivity .30",6%
same,"Calcification reduction, M","100 mg, bioactivity .50",16.1%
same,"Calcification reduction, Max","100 mg, bioactivity .50",18.1%
same,"Calcification reduction, Min","100 mg, bioactivity .50",14.1%
same,"Calcification reduction, M","100 mg, bioactivity .60",21.54%
same,"Calcification reduction, Max","100 mg, bioactivity .60",23.7%
same,"Calcification reduction, Min","100 mg, bioactivity .60",18.3%
same,"Calcification reduction, M","100 mg, bioactivity .70",30.71%
same,"Calcification reduction, Max","100 mg, bioactivity .70",35.6%
same,"Calcification reduction, Min","100 mg, bioactivity .70",25.8%
same,"Calcification reduction, M","100 mg, bioactivity .80",37.74%
same,"Calcification reduction, Max","100 mg, bioactivity .80",44.4%
same,"Calcification reduction, Min","100 mg, bioactivity .80",31.7%
same,"Calcification reduction, M","100 mg, bioactivity .90",48.52%
same,"Calcification reduction, Max","100 mg, bioactivity .90",54.7%
same,"Calcification reduction, Min","100 mg, bioactivity .90",37.6%
same,"Calcification reduction, M","100 mg, bioactivity .95",55%
same,"Calcification reduction, Max","100 mg, bioactivity .95",66.1%
same,"Calcification reduction, Min","100 mg, bioactivity .95",41.9%
same,"Calcification reduction, M",[1],19.42%
same,"Calcification reduction, Max",[1],22.1%
same,"Calcification reduction, Min",[1],15.4%
same,"Calcification reduction, M",[2],25.56%
same,"Calcification reduction, Max",[2],32.5%
same,"Calcification reduction, Min",[2],18.5%
same,"Calcification reduction, M",[3],32.69%
same,"Calcification reduction, Max",[3],42.6%
same,"Calcification reduction, Min",[3],26.3%
same,"Calcification reduction, M",[4],42.98%
same,"Calcification reduction, Max",[4],54.5%
same,"Calcification reduction, Min",[4],35.8%
same,"Calcification reduction, M",[5],55%
same,"Calcification reduction, Max",[5],66.1%
same,"Calcification reduction, Min",[5],41.9%
